As a reminder, the mass density is the mass of a sample divided by its volume. As usually defined, the viscosity is the resistance of a fluid to flow.

This note sets out measurements from the NIST ThermoML archive (doi:10.1016/j.jct.2014.01.028).

For the series the following is noted: for electrical conductivity / mass density / viscosity: 101.33 kPa, Liquid; for electrical conductivity: Alternating current cell with electrodes; for mass density: Pycnometric method; for viscosity: Capillary tube (Ostwald / Ubbelohde) method; for Glass transition temperature: DTA.

Numbers after ± are expanded uncertainties.

Turning to `C[n+]1ccn(CCCCn2cc[n+](C)c2)c1.c1c[n-]cn1.c1c[n-]cn1`, the Glass transition temperature is -54.34 ± 2 °C. Under “293.15 K”, the electrical conductivity came out at 0.0266 ± 0.0008 S/m and the mass density is on record as 1177.4 ± 3.7 kg/m3. Moreover, under “303.15 K”, the electrical conductivity was 0.0686 ± 0.0022 S/m, the viscosity came to 3058 ± 220 mPa·s and the mass density amounted to 1172.8 ± 3.7 kg/m3. Moreover, under “313.15 K”, the electrical conductivity stood at 0.146 ± 0.0047 S/m, the viscosity amounted to 1003 ± 64 mPa·s and the mass density is listed as 1166.9 ± 3.7 kg/m3. Moreover, under “323.15 K”, the electrical conductivity was found to be 0.283 ± 0.009 S/m, the viscosity is 427.1 ± 22 mPa·s and the mass density came out at 1158.7 ± 3.7 kg/m3. Also, under “333.15 K”, the electrical conductivity amounted to 0.498 ± 0.016 S/m, the viscosity was 206.3 ± 9.1 mPa·s and the mass density is 1154.3 ± 3.7 kg/m3. Besides, where the note is “343.15 K”, the electrical conductivity came out at 0.955 ± 0.03 S/m, the viscosity was found to be 111.5 ± 4.6 mPa·s and the mass density worked out at 1148.9 ± 3.7 kg/m3.

Consider `C[n+]1ccn(CCn2cc[n+](C)c2)c1.c1c[n-]cn1.c1c[n-]cn1`, for which the Glass transition temperature is -56.18 ± 2 °C. In addition, where the note is “293.15 K”, the electrical conductivity turned out to be 0.0111 ± 0.00035 S/m and the mass density is 1210.8 ± 3.9 kg/m3. Under “303.15 K”, the electrical conductivity stood at 0.0309 ± 0.00098 S/m, the viscosity is reported as 6306 ± 530 mPa·s and the mass density is 1206 ± 3.9 kg/m3. Besides, where the note is “313.15 K”, the electrical conductivity was determined as 0.0684 ± 0.0022 S/m, the viscosity is 2538 ± 180 mPa·s and the mass density is on record as 1200 ± 3.9 kg/m3. Under “323.15 K”, the electrical conductivity was found to be 0.145 ± 0.0046 S/m, the viscosity is listed as 854.7 ± 52 mPa·s and the mass density is recorded as 1191.5 ± 3.9 kg/m3. Under “333.15 K”, the electrical conductivity is 0.254 ± 0.0081 S/m, the viscosity came to 440.2 ± 22 mPa·s and the mass density was 1185.7 ± 3.9 kg/m3. For the same molecule, for the setting “343.15 K”, the electrical conductivity was 0.425 ± 0.013 S/m, the viscosity was found to be 145.1 ± 8.2 mPa·s and the mass density was found to be 1178.9 ± 3.9 kg/m3.

Consider `C[n+]1ccn(CCO)c1.c1c[n-]cn1` [1-(2-hydroxyethyl)-3-methylimidazolium imidazolide], for which the Glass transition temperature was -54.01 ± 2 °C. In addition, for the setting “293.15 K”, the electrical conductivity amounted to 0.000168 ± 5e-06 S/m and the mass density stood at 1301 ± 4.5 kg/m3. For the same molecule, for the setting “303.15 K”, the electrical conductivity is 0.000636 ± 2e-05 S/m, the viscosity is 8896 ± 790 mPa·s and the mass density worked out at 1295.7 ± 4.5 kg/m3. Further, where the note is “313.15 K”, the electrical conductivity was found to be 0.00229 ± 7e-05 S/m, the viscosity turned out to be 3632 ± 280 mPa·s and the mass density worked out at 1289.8 ± 4.5 kg/m3. Where the note is “323.15 K”, the electrical conductivity is 0.00646 ± 0.00021 S/m, the viscosity was 1255 ± 82 mPa·s and the mass density is reported as 1283.7 ± 4.5 kg/m3. Where the note is “333.15 K”, the electrical conductivity came out at 0.0174 ± 0.00055 S/m, the viscosity is recorded as 615.2 ± 34 mPa·s and the mass density is on record as 1278.1 ± 4.5 kg/m3. Moreover, for the setting “343.15 K”, the electrical conductivity was determined as 0.0391 ± 0.0013 S/m, the viscosity is 290.4 ± 14 mPa·s and the mass density is recorded as 1272.3 ± 4.4 kg/m3.

Regarding `C[n+]1ccn(CCCN)c1.c1c[n-]cn1` [1-(3-aminopropyl)-3-methylimidazolium imidazolide], the Glass transition temperature is -55.02 ± 2 °C. Moreover, for the setting “293.15 K”, the electrical conductivity amounted to 0.0842 ± 0.0027 S/m, the viscosity came to 220 ± 9.6 mPa·s and the mass density is reported as 1148.4 ± 3.5 kg/m3. Moreover, for the setting “303.15 K”, the electrical conductivity came to 0.166 ± 0.0053 S/m, the viscosity came out at 98.4 ± 4 mPa·s and the mass density was determined as 1143.1 ± 3.5 kg/m3. Further, under “313.15 K”, the electrical conductivity came out at 0.304 ± 0.0097 S/m, the viscosity is recorded as 54.5 ± 2 mPa·s and the mass density is 1137.5 ± 3.5 kg/m3. In addition, for the setting “323.15 K”, the electrical conductivity turned out to be 0.504 ± 0.016 S/m, the viscosity is listed as 32.1 ± 1.2 mPa·s and the mass density is 1131.8 ± 3.5 kg/m3. Where the note is “333.15 K”, the electrical conductivity came to 0.738 ± 0.024 S/m, the viscosity turned out to be 19.9 ± 0.7 mPa·s and the mass density is reported as 1126.3 ± 3.5 kg/m3. Under “343.15 K”, the electrical conductivity is 1.09 ± 0.035 S/m, the viscosity stood at 13.7 ± 0.5 mPa·s and the mass density is recorded as 1120.8 ± 3.5 kg/m3.

For `CCCCn1cc[n+](C)c1.c1c[n-]cn1` [1-butyl-3-methylimidazolium imidazolide], the Glass transition temperature was -56.01 ± 2 °C. Further, under “293.15 K”, the electrical conductivity came out at 0.0737 ± 0.0023 S/m, the viscosity stood at 533.3 ± 28 mPa·s and the mass density was 1085.3 ± 3.2 kg/m3. Moreover, under “303.15 K”, the electrical conductivity is 0.15 ± 0.0048 S/m, the viscosity amounted to 272.6 ± 13 mPa·s and the mass density is 1079.9 ± 3.2 kg/m3. Further, under “313.15 K”, the electrical conductivity worked out at 0.284 ± 0.009 S/m, the viscosity turned out to be 140 ± 6 mPa·s and the mass density was 1073.2 ± 3.2 kg/m3. For the setting “323.15 K”, the electrical conductivity stood at 0.481 ± 0.015 S/m, the viscosity is 76.8 ± 2.9 mPa·s and the mass density is recorded as 1066.5 ± 3.2 kg/m3. In addition, where the note is “333.15 K”, the electrical conductivity was found to be 0.713 ± 0.023 S/m, the viscosity was found to be 47.5 ± 1.7 mPa·s and the mass density was found to be 1060.4 ± 3.2 kg/m3. Under “343.15 K”, the electrical conductivity amounted to 1.01 ± 0.032 S/m, the viscosity turned out to be 34 ± 1.2 mPa·s and the mass density is 1054.1 ± 3.2 kg/m3.

As to `CCn1cc[n+](C)c1.c1c[n-]cn1` [1-ethyl-3-methylimidazolium imidazolide], the Glass transition temperature is -60.01 ± 2 °C. For the same molecule, for the setting “293.15 K”, the electrical conductivity was 0.27 ± 0.0086 S/m, the viscosity is reported as 191.8 ± 8.1 mPa·s and the mass density is recorded as 1113.5 ± 3.3 kg/m3. In addition, where the note is “303.15 K”, the electrical conductivity came out at 0.487 ± 0.015 S/m, the viscosity was determined as 87.9 ± 3.5 mPa·s and the mass density came to 1106.7 ± 3.3 kg/m3. In addition, where the note is “313.15 K”, the electrical conductivity came to 0.804 ± 0.026 S/m, the viscosity was 42.4 ± 1.6 mPa·s and the mass density is on record as 1100.3 ± 3.3 kg/m3. In addition, under “323.15 K”, the electrical conductivity turned out to be 1.24 ± 0.039 S/m, the viscosity is on record as 22.9 ± 0.9 mPa·s and the mass density worked out at 1092.5 ± 3.3 kg/m3. In addition, for the setting “333.15 K”, the electrical conductivity was determined as 1.69 ± 0.054 S/m, the viscosity is 14.8 ± 0.5 mPa·s and the mass density came to 1086.3 ± 3.3 kg/m3. Also, where the note is “343.15 K”, the electrical conductivity amounted to 2.11 ± 0.067 S/m, the viscosity came out at 8.6 ± 0.3 mPa·s and the mass density is listed as 1079.7 ± 3.3 kg/m3.
